We go through three compounds from paper PMC9611048, “Rapid Simultaneous Determination of Three Synthetic Cannabinoids in Urine and Plasma of Rats Using Ultra-High Performance Liquid Chromatography Tandem Mass Spectrometry” (Toxics, 2022).

Series [1] can be described thus: Determination of synthetic cannabinoids in rat plasma by LC-MS/MS after dosing. The format is in vivo. Conditions: 1 mg/kg tail vein injection; for concentration at 72 h: male, Sprague-Dawley, intravenous. On the procedure: (§1) The Sprague–Dawley male rats (n = 12, 6 weeks, weighing 190–210 g) were obtained from Zhejiang Academy of Medical Sciences (Hangzhou, Zhejiang, China) and acclimatized for 1 week before exposure in the experimental room (temperature 23 ± 2 ℃, humidity 55 ± 10%, 12 h light–dark cycle). After 1-week adaptation, rats were fasted for 16 h before […]. The rats were randomly allocated to 3 groups, the JWH-122, 5F-AMB, and AMB-PUBINACA group, while the doses were all 1 mg/kg bw/day by tail vein injection. The urine samples were collected at 2 h, 4 h, 8 h, and 24 h during the initial 24 h and every 24 h during the next 48 h. The blood samples were collected from the abdominal aorta. Finally, urine samples and blood samples were obtained from each rat and stored at −80 °C. All the above animal experimental procedures were approved by the Zhejiang Center of Laboratory Animals Welfare and Ethical Review Committee (Approval ID: ZJCLA-IACUC-20100005; Hangzhou, China).
In this experiment, extraction conditions of three synthetic cannabinoids in rat plasma and urine were optimized, and the detailed parameters are shown in Table 1. Briefly, 100 μL of plasma sample was transferred into a centrifuge tube with 100 μL of acetonitrile and 500 μL of methanol and then vortexed for 6 min. Finally, the supernatant was centrifuged at 12,000 rpm for 10 min then filtered through a 0.22 μm cellulose filter. Solid phase extraction (SPE) is a common pretreatment method for the synthesis of cannabinoids in urine. The urine sample was extracted by SPE. The SPE cartridges were conditioned with 3 mL of methanol followed by 6 mL of water. Amounts of 1.6 mL of acetonitrile and water were added to 400 µL of urine, mixed uniform. […]
The separated analytes were quantified using an AB SCIEX 6500^+ quadrupole ion trap mass spectrometer (QTRAP MS) under the multiple reaction monitoring (MRM) mode with negative ion channels (Table 2). […] The HPLC-QTRAP-MS data were converted to SCIEX OS 1.4.0.18067 (SCIEX, Toronto, QUE, CA) for qualitative and quantitative analysis.

The nature of series [2]: Determination of synthetic cannabinoids in rat urine by LC-MS/MS after dosing. The class given is in vivo. The settings on record: for concentration at 2 h / concentration at 4 h / concentration at 8 h / concentration at 24 h / concentration at 48 h / concentration at 72 h: male, Sprague-Dawley, intravenous; for detection window: rat, the dose for the tail vein was 1 mg/kg. On the procedure: as §1
In this experiment, extraction conditions of three synthetic cannabinoids in rat plasma and urine were optimized, and the detailed parameters are shown in Table 1. Briefly, 100 μL of plasma sample was transferred into a centrifuge tube with 100 μL of acetonitrile and 500 μL of methanol and then vortexed for 6 min. Finally, the supernatant was centrifuged at 12,000 rpm for 10 min then filtered through a 0.22 μm cellulose filter. Solid phase extraction (SPE) is a common pretreatment method for the synthesis of cannabinoids in urine. The urine sample was extracted by SPE. The SPE cartridges were conditioned with 3 mL of methanol followed by 6 mL of water. Amounts of 1.6 mL of acetonitrile and water were added to 400 µL of urine, mixed uniform. After sample loading, the cartridges were respectively washed with 3 mL of 5% methanol, discard wash. The extract was eluted via 4 mL of methanol and evaporated to dryness under a stream of nitrogen at 40 ℃.
The AB SCIEX ExionLCTM0AD XR high-performance liquid chromatograph system coupled with the SCIEX QTRAP 6500^+ triple quadrupole/linear ion trap mass spectrometer system (AB SCIEX, Milford, MA, USA) was used for analysis. Chromatographic separation was carried out using a Waters UPLC HSS T3 (150 × 2.1 mm, 1.8 μm) column at 40 °C;. Injection volume was 1 μL. The mobile phase comprised 0.1% formic acid in water (A) and acetonitrile (B) at a flow rate of 0.3 mL/min. Gradient conditions were set as follows: 10% B (1 min), to 100% B (in 6 min), hold 100% B (4 min), to 10% B (in 0.1 min), and hold (1.9 min).
The separated analytes were quantified using an AB SCIEX 6500^+ quadrupole ion trap mass spectrometer (QTRAP MS) under the multiple reaction monitoring (MRM) mode with […] ion channels (Table 2). The mass spectrometry parameters were set as follows: curtain gas, 35 psi; collision gas, medium; ion spray voltage, 5500 V; source temperature, 550 ℃; nebulizing gas, 50 psi; heater gas, 50 psi. The HPLC-QTRAP-MS data were converted to SCIEX OS 1.4.0.18067 (SCIEX, Toronto, QUE, CA) for qualitative and quantitative analysis.

[3] abbreviates: rat urine, 1 mg/kg tail vein injection.
The mark [4] stands for this setting: rat urine, 72 h, 1 mg/kg tail vein injection.

In series [1], `CCCCCn1cc(C(=O)c2ccc(C)c3ccccc23)c2ccccc21` [JWH-122, 4-methylnaphthalen-1-yl-(1-pentylindol-3-yl) methanone] displayed a concentration at 72 h of 0.08 ng/mL. In series [2] (setting [3]), this compound registered a concentration at 2 h of 0.2 ng/mL, a concentration at 4 h of 0.12 ng/mL, a concentration at 8 h of 0.09 ng/mL and a concentration at 24 h of 0.06 ng/mL. The compound also displayed a concentration at 48 h in series [2] (setting [3]) of 0.02 ng/mL. For the same compound, in series [2] (setting [4]), the concentration at 72 h came to 0.01 ng/mL. In addition, in series [2], the detection window lay within 2 to 3 days.
Take `COC(=O)C(NC(=O)c1nn(Cc2ccc(F)cc2)c2ccccc12)C(C)C` (stereo not drawn) [AMB-FUBINACA, methyl 2-(1-(4-fluorobenzyl)-1Hindazole-3-carboxamido)-3-methylbutanoate]: in series [1], the concentration at 72 h stood at 0.05 ng/mL. Further, in series [2] (setting [3]), the concentration at 2 h is 3.38 ng/mL, the concentration at 4 h came out at 0.41 ng/mL, the concentration at 8 h was 0.19 ng/mL and the concentration at 24 h was found to be 0.1 ng/mL. Moreover, the concentration at 48 h in series [2] (setting [3]) amounted to 0.03 ng/mL. The “Urine Concentration 72 h” value in series [2] (setting [4]) was “not detected”. The compound also had a detection window in series [2] of 2 to 3 days.
Take `COC(=O)[C@@H](NC(=O)c1nn(CCCCCF)c2ccccc12)C(C)C` [5F-AMB, methyl (1-(5-fluoropentyl)-1H-indazole-3-carbonyl)-L-valinate]: the “Plasma Concentration 72 h” value in series [1] is listed as “not detected”. In series [2] (setting [3]), this compound had a concentration at 2 h of 8.68 ng/mL, a concentration at 4 h of 1.11 ng/mL, a concentration at 8 h of 0.72 ng/mL and a concentration at 24 h of 0.14 ng/mL. In addition, in series [2] (setting [3]), the concentration at 48 h was 0.03 ng/mL. In series [2] (setting [4]), this compound gave a concentration at 72 h of 0.01 ng/mL. In series [2], this compound showed a detection window of 2 to 3 days.
